Laboratory results reported in patent US20240059703A1 (AMGEN INC., priority 2021, published 2024).

Columns and labels:
[1] = tested on: phosphorylation of extracellular signal-regulated kinase (ERK); conditions: preclinical studies; cited from earlier work
[2] = tested on: MIA PaCa-2 (human pancreatic carcinoma) cells; assay: Cell Viability Assay (CellTiter-Glo), MIA PaCa-2; assay type: cell-based; conditions: Homo sapiens, MIA PaCa-2, 72 h
Method: Serially-diluted compound or DMSO was added to the cells, and plates were incubated at 37° C., 5% CO2 for 72 h. Cell viability was measured using a CellTiter-Glo® Luminescent Cell Viability Assay kit (Promega) according to the manufacturer's protocol. The luminescence signal of treated samples was normalized to DMSO control, and data were analyzed using a 4-parameter logistic model to calculate IC50 values.

[3] = tested on: A549 (human lung carcinoma) cells; assay: Cell Viability Assay (CellTiter-Glo), A549; assay type: cell-based; conditions: Homo sapiens, A549, 72 h
Outline: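 RPMI 1640/10% FBS; seed 1.67E+04 cells/mL, o/n 37° C., 5% CO2; serial-dilution cmpd 72 h; CellTiter-Glo luminescence vs DMSO; 4-parameter logistic fit → IC50.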

KRAS G12C [4] = molecular target: T1, KRAS G12C (Homo sapiens (Human), UniProt P01116, C118A/G12C); assay: 20 h coupled exchange assay; assay type: biochemical; conditions: value marked ** in the Avg 2 h column; footnote not given, taken as 20 h pre-incubation
T1 sequence (P01116 other isoform, or with tags, fused parts or gaps G12C/C118A): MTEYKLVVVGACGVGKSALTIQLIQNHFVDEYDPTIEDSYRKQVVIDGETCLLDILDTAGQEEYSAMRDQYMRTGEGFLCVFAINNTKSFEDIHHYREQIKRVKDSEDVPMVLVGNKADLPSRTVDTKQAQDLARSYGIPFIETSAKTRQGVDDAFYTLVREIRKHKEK
Method: (§1) The term “2 h coupled exchange assay” or “20 h coupled exchange assay” as used herein refers to the assay described in the Section entitled “BIOLOGICAL EVALUATION.”

KRAS G12C [5] = molecular target: T1, KRAS G12C; assay: 2 h coupled exchange assay; assay type: biochemical; conditions: Avg 2 h Coupled exchange IC50, 2 h compound pre-incubation, SOS-mediated nucleotide exchange
Method: as §1

Structure (SMILES)	IC50 [2]	IC50 [3]	IC50 (KRAS G12C [4])	IC50 (KRAS G12C [5])	inhibition of phosphorylation of extracellular signal-regulated kinase (ERK) [1]
C=CC(=O)N1CCN(c2nc(=O)n(-c3c(C)ccnc3C(C)C)c3nc(-c4c(O)cccc4F)c(F)cc23)[C@@H](C)C1 [AMG 510]	–	–	–	–	inhibited nearly all detectable phosphorylation
C=CC(=O)N1CC2(CCN(c3cc(-c4c(C)ccc5[nH]ncc45)c4occ(C)c4n3)C2)C1 [Example 3, 1-(6-(3-Methyl-7-(5-methyl-1H-indazol-4-yl)furo[3,2-b]pyridin-5-yl)-2,6-diazaspiro[3.4]octan-2-yl)prop-2-en-1-one]	–	–	1380 nM	–	–
C=CC(=O)N1CC2(CCN(c3nc4c(c(-c5cc(O)cc6ccccc56)c3C#N)CC(C)(C)C4)C2)C1 (single isomer, unassigned) [Example 13-69, (P)-4-(3-hydroxy-1-naphthalenyl)-6,6-dimethyl-2-(2-(2-propenoyl)-2,6-diazaspiro[3.4]octan-6-yl)-6,7-dihydro-5H-cyclopenta[b]pyridine-3-carbonitrile]	217 nM	3230 nM	–	27 nM	–
C=CC(=O)N1CC2(CCN(c3nc4ccccc4c(-c4c(C)c(F)cc5[nH]ncc45)c3C#N)C2)C1 [Example 14-2, 4-(6-fluoro-5-methyl-1H-indazol-4-yl)-2-(2-(2-propenoyl)-2,6-diazaspiro[3.4]octan-6-yl)-3-quinolinecarbonitrile]	458 nM	> 5000 nM	–	87 nM	–

Now from value to molecule, other results behind:

IC50 [2]	IC50 [3]	IC50 (KRAS G12C [4])	IC50 (KRAS G12C [5])	Structure (SMILES)	inhibition of phosphorylation of extracellular signal-regulated kinase (ERK) [1]
> 5000 nM	> 5000 nM	4650 nM	–	C=CC(=O)N1CC2(CCN(c3nc(-c4c(C)ccc5[nH]ncc45)c4ncn(C)c4n3)C2)C1 [Example 1-20, 1-(6-(9-methyl-6-(5-methyl-1H-indazol-4-yl)-9H-purin-2-yl)-2,6-diazaspiro[3.4]octan-2-yl)-2-propen-1-one]	–
> 5000 nM	> 5000 nM	–	882 nM	C=CC(=O)N1CC2(CCN(c3nc(-c4c(C)ccc5[nH]ncc45)c4ccc(OC)cc4n3)C2)C1 [Example 1-41, 1-(6-(7-methoxy-4-(5-methyl-1H-indazol-4-yl)-2-quinazolinyl)-2,6-diazaspiro[3.4]octan-2-yl)-2-propen-1-one]	–
